Consider 2 compounds from patent US20190307770A1, “METHODS FOR TREATING OR PREVENTING CANCER IN A KRAS-VARIANT PATIENT AND FOR […] OF […] PRIMARY BREAST TUMORS” (MIRADX, priority 2014, published 2019).

Experiment [1] has as its system MCF10A KRAS-variant+/- (MT) cell lines. The experiment can be described thus: Anchorage independent growth (soft agar colony formation) as measure of transformation. The settings on record: for level of transformation in anchorage independent growth assay: KRAS-variant (L1 and L2) versus parental (WT) MCF10A lines, comparison of anti-estrogen treatments and estrogen; for fold increased colony formation rate: KRAS-variant MCF10A lines, grown without EGF. The experiment is classed as cell-based, human. The method, then: Anchorage independent growth was assessed as described previously (Sweasy et al. (2005) PNAS 102:14350-5). After thawing and growing cells until confluence in EGF supplemented media (20 ng/ml), cells were plated into conditions of study for two passages. For estrogen depletion experiments phenol red free DMEM/F12 medium (Invitrogen) and 5% charcoal-stripped horse serum (Thermo Fisher) were used, and Tamoxifen or estrogen was added to a final concentration of 1 μM after the first passage, as appropriate. To plate, 100 μl of MCF10A (WT) or (MT) cells at a density of 400,000 cells/ml were mixed with 2 ml of media for the condition under study containing 2 ml 0.7% noble agar (USB). 1 ml of the cell mixture was added to 1 ml of 1.0% noble agar in a well of a 6-well dish. Cells were fed twice weekly by layering on a 50:50 mixture of media with 0.7% agar for 2 weeks, followed by only media for two-three additional weeks. The number of colonies present in each of ten microscope fields per well from a total of 3 wells per experiment was counted to evaluate transformation and is reported as an average of the 2 separate MT lines.
Next, WT and MT lines were plated in soft agar to test for transformation, as measured by anchorage independent growth. […] The impact of estrogen withdrawal on this transformation was next evaluated by the use of charcoal stripped serum, tamoxifen, or a combination of the two. […] These findings biologically confirm wide spread transformation in normal breast epithelium with acute estrogen withdrawal in breast cells with the KRAS-variant.
Next, different forms of estrogen inhibitors were tested to determine their effects on transformation in the presence of the KRAS-variant. Tamoxifen (ER antagonist in breast), anastrozole (aromatase inhibitor, inhibiting estrogen synthesis), and fulvestrant (a complete ER antagonist) were administered to parental (WT) or two KRAS-variant (L1 and L2) MCF10A cell lines and anchorage independent growth was assessed using the colony formation assay described above.

The conditions of experiment [2]: post-menopausal use of estrogen alone, median follow up 11.8 years; CI 0.62-0.95, p 0.02; cited from earlier work.

Consider estrogen, for which the “level of transformation in anchorage independent growth assay” value in experiment [1] (FIG. 5) was “prevented transformation”; in experiment [1] (FIG. 5, listed as Estrogen), “prevents transformation”. In addition, in experiment [1] (KRAS-variant MT cell lines, charcoal-stripped media, estrogen 1 μM, p=0.018, FIG. 4), the “transformation (colony formation) after return of estrogen to charcoal-stripped media” value is “decreased transformation”. The “breast cancer incidence versus placebo, HR” value in experiment [2] is 0.77.

As for `CC/C(=C(\c1ccccc1)c1ccc(OCCN(C)C)cc1)c1ccccc1` [Tamoxifen], the “colonies formed relative to the anastrozole or fulvestrant treatments” value in experiment [1] (KRAS-variant (L1 and L2) MCF10A lines, FIG. 5) is approximately 10 times. For the same compound, in experiment [1] (FIG. 5), the “level of transformation in anchorage independent growth assay” value is given as “highest level of transformation”. For the same compound, the “fold increased colony formation rate” value was found to be 7.9 fold in experiment [1] (Tamoxifen combined with charcoal stripped media) and 2 fold in experiment [1] (in the presence of Tamoxifen (1 μM final)).
